The source of these data is patent US9562272B2, “Screening method for therapeutic agent for chondropathy and modified chondrocyte for treatment of chondropathy” (KYOTO UNIVERSITY, priority 2011, dated 2017).

In this assay the target is T1, SIK3 (Homo sapiens, UniProt Q9Y2K2).
T1 construct: expressed in transfected cells; host or cells: HEK293
The assay can be described thus: GAL4-Luc/TORC2 dual-luciferase reporter screening system for SIK3 activity in HEK293 cells. It is filed as cell-based. As to conditions: HEK293 cells transfected with pM-TORC2 and pTarget-SIK3; test substance added 24 h later, treated for 6 hours; DMSO control. The method, then:
Into HEK293 cells, a reporter vector GAL4-Luc (firefly luciferase: pTAL-5XGAL4 (150 ng)), an endogenous reporter vector (Renilla luciferase: pRL-Int (−) (30 ng)), a vector with or without the expression of TORC (pM-TORC2 or pM only (50 ng)) and a vector with or without the expression of SIK3 (pTarget-SIK3 or pTarget only (50 ng)) were introduced using Lipofectamine 2000. Twenty-four hours later, a test substance was added and the cells were further treated for 6 hours. The measurement of the reporter activity was performed using Dual-Luciferase assay kit made by Promega. As the test substance, staurosporine (STS) or a SIK2 inhibitor (Compound C) was used. As a control, DMSO alone was added.
In FIG. 7, the vertical axis represents the activity of TORC2, which is the activity of pM-TORC2 that was calculated by dividing the firefly luciferase activity by the Renilla luciferase activity and is expressed as a multiple of the activity of pM. The white bars and the black bars represent the activities of TORC2 with the absence and presence of SIK3, respectively. […] As is apparent from FIG. 7, the inhibiting activity of staurosporine (STS) on SIK3 was detected.

T1 sequence (Q9Y2K2 whole entry): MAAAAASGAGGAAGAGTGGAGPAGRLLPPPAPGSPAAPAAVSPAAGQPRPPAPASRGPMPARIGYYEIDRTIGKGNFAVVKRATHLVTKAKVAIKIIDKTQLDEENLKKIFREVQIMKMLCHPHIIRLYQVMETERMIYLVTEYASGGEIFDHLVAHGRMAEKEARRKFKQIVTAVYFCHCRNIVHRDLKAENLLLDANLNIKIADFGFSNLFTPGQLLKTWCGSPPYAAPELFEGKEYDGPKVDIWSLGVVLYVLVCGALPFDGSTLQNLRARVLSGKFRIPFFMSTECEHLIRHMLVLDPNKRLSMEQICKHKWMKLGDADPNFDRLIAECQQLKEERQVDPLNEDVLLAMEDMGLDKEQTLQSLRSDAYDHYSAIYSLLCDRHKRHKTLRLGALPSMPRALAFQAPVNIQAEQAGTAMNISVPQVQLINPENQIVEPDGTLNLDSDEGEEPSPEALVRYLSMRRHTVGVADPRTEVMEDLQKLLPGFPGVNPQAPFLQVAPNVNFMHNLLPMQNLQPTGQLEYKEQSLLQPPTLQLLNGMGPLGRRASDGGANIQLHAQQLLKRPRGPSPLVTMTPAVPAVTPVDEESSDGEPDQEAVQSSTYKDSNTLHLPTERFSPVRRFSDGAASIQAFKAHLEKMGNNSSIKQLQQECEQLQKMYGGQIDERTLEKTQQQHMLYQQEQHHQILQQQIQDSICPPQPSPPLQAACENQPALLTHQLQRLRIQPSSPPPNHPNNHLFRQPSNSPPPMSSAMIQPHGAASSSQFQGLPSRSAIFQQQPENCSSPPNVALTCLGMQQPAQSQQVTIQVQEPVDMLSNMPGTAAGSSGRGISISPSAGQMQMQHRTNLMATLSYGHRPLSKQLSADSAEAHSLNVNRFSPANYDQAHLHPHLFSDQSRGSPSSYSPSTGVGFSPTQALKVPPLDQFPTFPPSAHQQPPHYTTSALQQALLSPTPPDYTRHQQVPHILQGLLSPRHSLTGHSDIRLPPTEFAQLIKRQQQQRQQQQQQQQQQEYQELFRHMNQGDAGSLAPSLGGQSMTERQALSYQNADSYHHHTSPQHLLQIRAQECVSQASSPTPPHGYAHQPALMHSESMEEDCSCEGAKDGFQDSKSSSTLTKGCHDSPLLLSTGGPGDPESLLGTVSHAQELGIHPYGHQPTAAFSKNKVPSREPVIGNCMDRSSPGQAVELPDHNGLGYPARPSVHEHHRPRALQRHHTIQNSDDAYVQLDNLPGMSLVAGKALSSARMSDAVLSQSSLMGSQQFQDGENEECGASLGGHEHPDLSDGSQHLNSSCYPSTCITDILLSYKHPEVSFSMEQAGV

Take `CN[C@@H]1C[C@H]2O[C@@](C)([C@@H]1OC)n1c3ccccc3c3c4c(c5c6ccccc6n2c5c31)C(=O)NC4` [staurosporine]: the “inhibiting activity on SIK3 (activity of TORC2 with absence vs presence of SIK3)” value is listed as “detected”.
